The CheMixHub viscosity set

Test: xn = mol fraction of the nth substance listed

OCCCl + CCCCO
viscosity [mPa·s], 101.33 kPa
Conditions | x1 = 0.097 | x1 = 0.1922 | x1 = 0.2941 | x1 = 0.3928 | x1 = 0.4937 | x1 = 0.5925 | x1 = 0.6943 | x1 = 0.7957 | x1 = 0.8961
298.15 K | 2.59 | 2.593 | 2.597 | 2.616 | 2.641 | 2.672 | 2.702 | 2.731 | 2.781
303.15 K | 2.29 | 2.25 | 2.271 | 2.288 | 2.316 | 2.363 | 2.38 | 2.4 | 2.428
308.15 K | 2.028 | 2.029 | 2.026 | 2.027 | 2.047 | 2.075 | 2.1 | 2.12 | 2.14

NC=O + C1COCCO1
101 kPa
Conditions | viscosity [mPa·s]
298.15 K, x1 = 0.2556 | 1.492
298.15 K, x1 = 0.433 | 1.849
298.15 K, x1 = 0.5602 | 2.219
298.15 K, x1 = 0.6657 | 2.564
298.15 K, x1 = 0.7461 | 2.863
298.15 K, x1 = 0.8157 | 3.094
298.15 K, x1 = 0.8733 | 3.26
298.15 K, x1 = 0.9221 | 3.361
298.15 K, x1 = 0.9643 | 3.363
313.15 K, x1 = 0.2695 | 1.138
313.15 K, x1 = 0.4572 | 1.383
313.15 K, x1 = 0.58 | 1.621
313.15 K, x1 = 0.6792 | 1.846
313.15 K, x1 = 0.7583 | 2.039
313.15 K, x1 = 0.8242 | 2.193
313.15 K, x1 = 0.8775 | 2.294
313.15 K, x1 = 0.9226 | 2.338
313.15 K, x1 = 0.9638 | 2.362

CN1CCC[C@H]1c1cccnc1 + Oc1ccccc1
viscosity [mPa·s], 101 kPa
Conditions | 308.15 K | 323.15 K
x1 = 0.1004 | 16.28 | 7.224
x1 = 0.206 | 28.72 | 11.46
x1 = 0.2109 | 30.07 | 12.15
x1 = 0.2205 | 29.73 | 11.9
x1 = 0.253 | 29.83 | 12.06
x1 = 0.255 | 29.69 | 12.05
x1 = 0.2629 | 29.4 | 12
x1 = 0.2865 | 28.64 | 11.74
x1 = 0.3078 | 27.55 | 11.63
x1 = 0.4035 | 21.01 | 10.08
x1 = 0.4981 | 16.16 | 8.092
x1 = 0.6636 | 7.423 | 4.797
x1 = 0.7961 | 5.162 | 3.41
x1 = 0.861 | 4.501 | 3.032

CN1CCC[C@H]1c1cccnc1 + CCCCO
100 kPa
Conditions | viscosity [mPa·s]
298.15 K, x1 = 0.3931 | 3.155
303.15 K, x1 = 0.7 | 3.205
313.15 K, x1 = 0.1 | 1.885

CC(C)C#N + Clc1ccccc1
viscosity [mPa·s], 101 kPa
Conditions | x2 = 0.1028 | x2 = 0.2026 | x2 = 0.3007 | x2 = 0.4004 | x2 = 0.5004 | x2 = 0.6004 | x2 = 0.6996 | x2 = 0.7998 | x2 = 0.8999
303.15 K | 0.487 | 0.513 | 0.537 | 0.562 | 0.585 | 0.61 | 0.636 | 0.663 | 0.689
308.15 K | 0.456 | 0.48 | 0.503 | 0.525 | 0.545 | 0.569 | 0.592 | 0.616 | 0.643
